Results from patent US7229769B2, “Compositions and methods for detecting protease activity” (Illumina, Inc., priority 2005, dated 2007).
Residues, ends and D or L forms follow the SMILES beside them. *: point of attachment. Cbz = O=C(OCc1ccccc1)*; CH2F = FC*

Target: T1, Caspase-3 (Homo sapiens, UniProt P42574)
T1 sequence (P42574 29-175 limits assumed): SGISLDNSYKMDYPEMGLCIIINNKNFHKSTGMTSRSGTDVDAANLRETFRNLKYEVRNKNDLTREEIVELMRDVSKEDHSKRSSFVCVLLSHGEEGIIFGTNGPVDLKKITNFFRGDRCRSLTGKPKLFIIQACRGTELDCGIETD
T1 sequence (P42574 176-277 limits assumed): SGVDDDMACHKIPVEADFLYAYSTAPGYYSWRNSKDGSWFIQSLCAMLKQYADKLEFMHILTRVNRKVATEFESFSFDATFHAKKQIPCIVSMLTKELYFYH
Experiment: Caspase-3 protease assay with protein-DNA conjugate substrate, streptavidin extraction, BeadArray detection; inhibition analysis
Assay type: biochemical
Settings: end point assays, various concentrations of inhibitor vs. absence of inhibitor, FIG. 10
Method: Caspase-3 protease activity was carried out as follows. Briefly, the caspase-3 substrate included a protein moiety (peptide) having a caspase-3 amino acid recognition sequence. The protein moiety was attached at its amino terminus to a FAM-labeled DNA moiety and at its carboxy terminus to a biotin. The enzymatic reactions were performed in 30 to 60 microliter volumes having substrate concentrations in the range of 20 nM to 150 nM. The enzyme concentrations ranged from a few ng/ml to a few mg/ml. The assay buffer was 50 mM Tris-HCL, pH 8.0, 1 mM CaCl2, and 0.1% Tween-20 (v/v). The assay was carried out at 37° C. at varying times from 5 minutes to twelve hours.
Following incubation of the protease and substrate, the reaction mixture was extracted with streptavidin beads provided in molar excess for 15 minutes to remove uncleaved substrate (and cleaved protein fragments lacking the DNA moiety). Following removal of the streptavidin beads, the remaining mixture, containing FAM-labeled DNA fragments of the cleaved caspase-3 substrate, was diluted into GoldenGate™ hybridization buffer (Illumina, Inc., San Diego, Calif.) and hybridized onto a Sentrix® BeadArray Matrix for one hour at room temperature. The BeadArray matrix included nucleic acid probes that were complementary to the FAM-labeled DNA fragments. […]

COC(=O)C[C@H](NC(=O)[C@H](C)NC(=O)[C@@H](NC(=O)OCc1ccccc1)C(C)C)C(=O)CF [ZVAD-FMK] (Cbz-Val-Ala-Asp(OMe)-CH2F)
extent of inhibition of caspase-3 (mean signal intensity vs. time): as the concentration of inhibitor was increased the extent of inhibition was also increased
